Measurements reported in ChEMBL document CHEMBL1201862, “PubChem BioAssay data set” (2004).
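Growth conditions: 96-well plates. Treatment: test compound, 48 hours, 5 concentrations. Analysis: linear interpolation between bracketing concentrations; unreached endpoints set to highest concentration. GI50: concentration for 50% inhibition of growth.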 The source made the active and inactive calls. No stated cut-off is given here; in the data, active = GI50 up to about 1.1 µM and inactive = higher.

Columns and labels:
Experiment in all cases: NCI-60 cell line screen, 48 h
[1] = system: 786-0
[2] = system: A498
[3] = system: A549
[4] = system: ACHN
[5] = system: CAKI-1
[6] = system: CCRF-CEM
[7] = system: COLO 205
[8] = system: DLD-1
[9] = system: DMS-114
[10] = system: DMS-273
[11] = system: EKVX
[12] = system: HCC 2998
[13] = system: HCT-116
[14] = system: HCT-15
[15] = system: HL-60
[16] = system: HOP-62
[17] = system: HOP-92
[18] = system: HT-29
[19] = system: IGROV-1
[20] = system: K562
[21] = system: KM-20L2
[22] = system: KM12
[23] = system: LOX IMVI
[24] = system: LXFL 529
[25] = system: M14
[26] = system: M19-MEL
[27] = system: MOLT-4
[28] = system: Malme-3M
[29] = system: NCI-H23
[30] = system: NCI-H460
[31] = system: NCI-H522
[32] = system: OVCAR-3
[33] = system: OVCAR-4
[34] = system: OVCAR-5
[35] = system: OVCAR-8
[36] = system: RPMI-8226
[37] = system: RXF 631
[38] = system: SF-268
[39] = system: SF-295
[40] = system: SF-539
[41] = system: SK-MEL-28
[42] = system: SK-MEL-2
[43] = system: SK-MEL-5
[44] = system: SK-OV-3
[45] = system: SN12C
[46] = system: SNB-19
[47] = system: SNB-78
[48] = system: SW-620
[49] = system: TK-10
[50] = system: U-251
[51] = system: UACC-257
[52] = system: UACC-62
[53] = system: UO-31
[54] = system: XF498
[55] = system: NCI-H226
[56] = system: RXF 393
[57] = system: SNB-75
[58] = system: SR
[59] = system: HOP-18

COc1ccc2c3c1C(=O)CCC3CO2 (stereo not given)
GI50 [1]: > 100 µM (inactive)
GI50 [2]: > 100 µM (inactive)
GI50 [3]: > 100 µM (inactive)
GI50 [4]: > 100 µM (inactive)
GI50 [5]: > 100 µM (inactive)
GI50 [6]: > 100 µM (inactive)
GI50 [7]: > 100 µM (inactive)
GI50 [8]: > 100 µM (inactive)
GI50 [9]: > 100 µM (inactive)
GI50 [10]: > 100 µM (inactive)
GI50 [11]: 91 µM (inactive)
GI50 [12]: > 100 µM (inactive)
GI50 [13]: > 100 µM (inactive)
GI50 [14]: > 100 µM
GI50 [15]: > 100 µM (inactive)
GI50 [16]: > 100 µM (inactive)
GI50 [17]: > 100 µM (inactive)
GI50 [18]: > 100 µM (inactive)
GI50 [19]: > 100 µM (inactive)
GI50 [20]: > 100 µM (inactive)
GI50 [21]: > 100 µM (inactive)
GI50 [22]: > 100 µM (inactive)
GI50 [23]: > 100 µM (inactive)
GI50 [24]: > 100 µM (inactive)
GI50 [25]: > 100 µM (inactive)
GI50 [26]: > 100 µM (inactive)
GI50 [27]: > 100 µM (inactive)
GI50 [28]: > 100 µM (inactive)
GI50 [29]: > 100 µM (inactive)
GI50 [30]: > 100 µM (inactive)
GI50 [31]: > 100 µM (inactive)
GI50 [32]: > 100 µM (inactive)
GI50 [33]: > 100 µM (inactive)
GI50 [34]: > 100 µM (inactive)
GI50 [35]: > 100 µM (inactive)
GI50 [36]: > 100 µM (inactive)
GI50 [37]: > 100 µM (inactive)
GI50 [38]: > 100 µM (inactive)
GI50 [39]: > 100 µM (inactive)
GI50 [40]: > 100 µM (inactive)
GI50 [41]: > 100 µM (inactive)
GI50 [42]: > 100 µM (inactive)
GI50 [43]: > 100 µM (inactive)
GI50 [44]: > 100 µM (inactive)
GI50 [45]: > 100 µM (inactive)
GI50 [46]: > 100 µM (inactive)
GI50 [47]: > 100 µM (inactive)
GI50 [48]: > 100 µM (inactive)
GI50 [49]: > 100 µM (inactive)
GI50 [50]: > 100 µM (inactive)
GI50 [51]: > 100 µM (inactive)
GI50 [52]: > 100 µM (inactive)
GI50 [53]: > 100 µM (inactive)
GI50 [54]: > 100 µM (inactive)

CNS(=O)(=O)NN(C)S(=O)(=O)c1ccc(OC)cc1
GI50 [1]: > 100 µM (inactive)
GI50 [2]: > 100 µM (inactive)
GI50 [3]: > 100 µM (inactive)
GI50 [4]: > 100 µM (inactive)
GI50 [5]: > 100 µM (inactive)
GI50 [6]: > 100 µM (inactive)
GI50 [7]: > 100 µM (inactive)
GI50 [8]: > 100 µM (inactive)
GI50 [9]: > 100 µM (inactive)
GI50 [10]: > 100 µM (inactive)
GI50 [11]: > 100 µM (inactive)
GI50 [12]: > 100 µM (inactive)
GI50 [13]: > 100 µM (inactive)
GI50 [14]: > 100 µM
GI50 [15]: > 100 µM (inactive)
GI50 [16]: > 100 µM (inactive)
GI50 [18]: > 100 µM (inactive)
GI50 [19]: > 100 µM (inactive)
GI50 [20]: > 100 µM (inactive)
GI50 [21]: > 100 µM (inactive)
GI50 [22]: > 100 µM (inactive)
GI50 [23]: 91.8 µM (inactive)
GI50 [24]: > 100 µM (inactive)
GI50 [25]: > 100 µM (inactive)
GI50 [26]: > 100 µM (inactive)
GI50 [27]: > 100 µM (inactive)
GI50 [28]: > 100 µM (inactive)
GI50 [55]: > 100 µM (inactive)
GI50 [29]: > 100 µM (inactive)
GI50 [31]: > 100 µM (inactive)
GI50 [33]: > 100 µM (inactive)
GI50 [35]: > 100 µM (inactive)
GI50 [36]: > 100 µM (inactive)
GI50 [56]: 31 µM (inactive)
GI50 [37]: > 100 µM (inactive)
GI50 [38]: > 100 µM (inactive)
GI50 [39]: > 100 µM (inactive)
GI50 [40]: > 100 µM (inactive)
GI50 [42]: > 100 µM (inactive)
GI50 [43]: > 100 µM (inactive)
GI50 [45]: > 100 µM (inactive)
GI50 [46]: > 100 µM (inactive)
GI50 [57]: > 100 µM (inactive)
GI50 [58]: > 100 µM (inactive)
GI50 [48]: > 100 µM (inactive)
GI50 [49]: > 100 µM (inactive)
GI50 [50]: > 100 µM (inactive)
GI50 [51]: > 100 µM (inactive)
GI50 [52]: > 100 µM (inactive)
GI50 [53]: > 100 µM (inactive)
GI50 [54]: > 100 µM (inactive)

COc1ccc2nc3cc(Cl)ccc3c(NCCC[N+](C)(C)CCCCCCCCCCCCCCCC[N+](C)(C)CCCNc3c4ccc(Cl)cc4nc4ccc(OC)cc34)c2c1
GI50 [1]: 3.63 µM (inactive)
GI50 [2]: 6.17 µM (inactive)
GI50 [3]: 3.12 µM (inactive)
GI50 [4]: 6.22 µM (inactive)
GI50 [5]: 10.6 µM (inactive)
GI50 [6]: 1.66 µM (inactive)
GI50 [7]: 1.83 µM (inactive)
GI50 [8]: 3.11 µM (inactive)
GI50 [9]: 1.89 µM (inactive)
GI50 [10]: 1.77 µM (inactive)
GI50 [11]: 3.21 µM (inactive)
GI50 [12]: 2.84 µM (inactive)
GI50 [13]: 1.75 µM (inactive)
GI50 [14]: 5.85 µM
GI50 [15]: 1.69 µM (inactive)
GI50 [59]: 2.42 µM (inactive)
GI50 [16]: 2.88 µM (inactive)
GI50 [18]: 1.61 µM (inactive)
GI50 [19]: 2.7 µM (inactive)
GI50 [20]: 1.85 µM (inactive)
GI50 [21]: 3.3 µM (inactive)
GI50 [22]: 1.64 µM (inactive)
GI50 [23]: 1.96 µM (inactive)
GI50 [24]: 1.79 µM (inactive)
GI50 [25]: 4.7 µM (inactive)
GI50 [26]: 1.97 µM (inactive)
GI50 [27]: 1.43 µM (inactive)
GI50 [28]: 2.24 µM (inactive)
GI50 [55]: 3.94 µM (inactive)
GI50 [29]: 2 µM (inactive)
GI50 [30]: 1.68 µM (inactive)
GI50 [31]: 2.81 µM (inactive)
GI50 [32]: 4.81 µM (inactive)
GI50 [33]: 2.44 µM (inactive)
GI50 [34]: 2.92 µM (inactive)
GI50 [35]: 3.15 µM (inactive)
GI50 [36]: 1.47 µM (inactive)
GI50 [56]: 2.84 µM (inactive)
GI50 [37]: 7.14 µM (inactive)
GI50 [38]: 2.11 µM (inactive)
GI50 [39]: 6.03 µM (inactive)
GI50 [40]: 2.25 µM (inactive)
GI50 [41]: 2.08 µM (inactive)
GI50 [42]: 1.79 µM (inactive)
GI50 [43]: 2 µM (inactive)
GI50 [44]: 4.33 µM (inactive)
GI50 [45]: 3.22 µM (inactive)
GI50 [46]: 2.69 µM (inactive)
GI50 [57]: 2.83 µM (inactive)
GI50 [48]: 1.96 µM (inactive)
GI50 [49]: 4.22 µM (inactive)
GI50 [50]: 2 µM (inactive)
GI50 [51]: 2.43 µM (inactive)
GI50 [52]: 2.69 µM (inactive)
GI50 [53]: > 10 µM (inactive)
